Key:
[1] = system: Du145 cells; assay: Boyden chamber Matrigel invasion assay; format: cell-based, human; settings: 1, 2, and 5 μM for 96 h
Experimental: FIGS. 3A-3J show partial suppression of epithelial to mesenchymal transition by miR-141 and CD44 as a direct target of miR-141. FIGS. 3A-3B show qPCR analysis of epithelial to mesenchymal transition markers in bulk (FIG. 3A) or CD44^+ (FIG. 3B) Du145 cells transfected with the miR-141 oligos (30 nM; 48 h). Results were presented as the relative expression levels over the cells transfected with the NC oligos. […] GAPDH was used as control and the relative protein levels after normalizing to GAPDH and NC controls were indicated below each lane. […] Shown below is the actual sequence in the region with the mutated miR-141 binding sequence indicated in grey (below). […] Shown are representative images. […]
Du145 cells transfected with NC or miR-141 oligos at the two doses and time intervals indicated were used in Western blotting. Indicated below are relative expression levels (normalized to respective GAPDH and compared to NC) of each protein determined by densitometric scanning of the individual bands. […]
FIG. 6A: Putative binding site of miR-141 in EZH2 3′-UTR. […] Relative protein levels were measured by densitometry and normalized to GAPDH levels (indicated below). […]
For Boyden Chamber invasion assays, Biocoat Matrigel Invasion Chamber (BD, Franklin Lakes, N.J.) was employed following the manufacturer's instructions. […] Representative images were taken for each membrane and cells were counted. […]

[2] = system: EZH2; assay: EZH2 mRNA and protein levels; format: cell-based, human; settings: Du145 cells; 1, 2, and 5 μM for 96 h
Experimental: FIG. 6A: Putative binding site of miR-141 in EZH2 3′-UTR. […] FIG. 6C is a qPCR analysis of EZH2 mRNA levels in CD44^+ PCa cells. Bars, mean±SD. *P<0.05; **P<0.01. […] Bars, mean±SD. **P<0.01. […] Western blotting was performed in PC3 and Du145 cells transfected with NC (60 nM) or miR-141 (30 or 60 nM) oligos (72 h). Relative protein levels were measured by densitometry and normalized to GAPDH levels (indicated below). […] Du145 cells plated one day before were treated with 1, 2, and 5 μM of DZNep for 96 h and then cells were harvested for invasion assays. **P<0.01. Inset, WB showing reduced EZH2 proteins by DZNep. […] Du145 cells were transfected with 10 nM scramble siRNA (siCon) or EZH2-targeting siRNAs (siEZH2) or siEZH2 plus anti-miR-141 (30 nM). 48 h later, cells were harvested for invasion assays. Bars, mean±SD. **P<0.01. […] Du145 cells were co-transfected with 30 nM NC or miR-141 oligos together with empty vector or pCMV-EZH2 construct. After 48 h, cells were harvested for invasion assay. Bars, mean±SD. **P<0.01.
Total RNA was extracted using microRNA isolation kit (Life Technologies) according to the manufacturer's instructions. microRNA qPCRs were performed using TaqMan microRNA assays (Life Technologies). qPCR data for microRNAs were normalized to RNU48 whereas qPCR data for mRNAs were normalized to GAPDH.
For Boyden Chamber invasion assays, Biocoat Matrigel Invasion Chamber (BD, Franklin Lakes, N.J.) was employed following the manufacturer's instructions. Briefly, 100,000-200,000 of prostate cancer cells after transfection with […]/miR-141 oligos or infection with miR-141 over-expressing lentivirus were seeded into each well. Medium with 20% fetal bovine serum was used in the lower chamber as chemo-attractant. After 20 h, cells were fixed and stained using HEMA stain. Representative images were taken for each membrane and cells were counted. Migration assays were simultaneously performed in control wells using identical protocol with Transwell (Costar; 8 μl PET) without Matrigel. […]

## Cl.Nc1nccc2c1ncn2[C@@H]1C=C(CO)[C@@H](O)[C@H]1O [DZNep, 3-Deazaneplanocin A hydrochloride, reference compound]
[1]
  Du145 cell invasion: blocked
[2]
  EZH2 protein: reduced

Reference: patent publication US10202604B2, “Methods of using microRNA-141” (Stemirna Therapeutics Co., Ltd., priority 2016, dated 2019)
